Row | SMILES | melting point [°C]
1 | CC1(C)OC2CC3C4CC(F)C5=CC(=O)C=CC5(C)C4(F)C(O)CC3(C)C2(C(=O)CO)O1 (stereo not drawn) | 266
2 | COc1ccc(-c2ccc(OC)cc2)cc1 | 177 to 181
3 | COC(=O)c1ccnnc1 | 66
4 | CC(C)(C)C=O | 6
5 | COc1ccccc1F | -39
6 | O=C(C=Cc1ccc2c(c1)OCO2)c1ccc(O)cc1 | 209 to 210
7 | COc1ccc(C2CCCCC2)cc1N | 66 to 68
8 | N#Cc1ccc(N2CCNCC2)nc1 | 131
9 | Fc1c(F)c(F)c(S)c(F)c1F | -24
10 | Cc1ccc(O)c(N)c1 | 136
11 | O=c1cnn(C2OC(CO)C(O)C2O)c(=O)[nH]1 (stereo not drawn) | 158
12 | COC(=O)c1ccc(N)c(Cl)c1 | 113
13 | COc1ccc(-c2nnc3n2NC(c2ccc(Cl)cc2)S3)cc1 (stereo not drawn) | 160
14 | O=C(O)C1(c2ccc(Cl)cc2Cl)CC1 | 140 to 147
15 | CSc1nc2cc(N=Cc3ccccc3Cl)ccc2[nH]1 | 229 to 231
16 | CCOc1ccc(-c2nnc3sc(-c4ccc(Cl)cc4)nn23)cc1 | 113
17 | CC(C)(C)OC(=O)N1CCC(c2nc(C=O)cs2)CC1 | 91 to 93
18 | N#Cc1cnn(-c2ccccc2)c1-n1cccc1 | 81 to 83
19 | Cc1ccc(C#N)c(C#N)c1 | 118 to 121
20 | N[C@H](Cc1ccc(I)cc1)C(=O)O | 251
21 | CCCCCCCF | -73
22 | O=C=Nc1cccc2nsnc12 | 81 to 82
23 | CCC1C2=C(OC(=O)C1(C)C)c1ccc(OC)cc1CC2 (stereo not drawn) | 142 to 143

Row | SMILES | melting point [°C]
24 | Cc1cc(C)n(C(=O)CC#N)n1 | 120
25 | Cc1nc(-c2ccc(C=O)cc2)no1 | 115
26 | O=C(Cl)c1ccc(Cl)c([N+](=O)[O-])c1 | 53.5
27 | CC(C)(C)OC(=O)CN=C(c1ccccc1)c1ccccc1 | 114
28 | CCCCCCCCCC(=O)OCC | -20
29 | COc1ccc(-c2nnc3n2NC(c2ccccc2OC)S3)cc1 (stereo not drawn) | 166
30 | O=C(Nc1cc(C(F)(F)F)cc(C(F)(F)F)c1)c1cncc(Cl)n1 | 133
31 | O=C1CC2(CCCC2)CC(=O)N1 | 153 to 155
32 | COc1cc(C=C2C(=O)NN=C2c2c(O)c3ccccc3n(C)c2=O)cc(OC)c1OC | 196
33 | CN(C)CCC=C1c2ccccc2COc2ccc(CC(=O)O)cc21 | 248
34 | O=Cc1ccc(-n2cncn2)cc1 | 147 to 149
35 | Nc1nnc(-c2ccccc2)c(Nc2ccc(Cl)cc2)n1 | 297
36 | COc1cc2c(cc1OC)C(C#N)N(C(=O)c1ccccc1)CC2 (stereo not drawn) | 214 to 217
37 | CC1=N[C@]2(c3ccccc3)Oc3c(c4ccccc4c4ccccc34)O[C@@H]2O1 | 166
38 | O=S(=O)(Cl)c1ccc(-c2cnco2)cc1 | 101
39 | O=C(c1ccc(F)cc1)c1ccc([N+](=O)[O-])cc1 | 87 to 89
40 | CC(Br)C(C)Br (stereo not drawn) | -24
41 | CC(=O)Oc1ccccc1C(=O)O | 142
42 | COc1cc(Br)c(C=O)cc1OC | 150
43 | CC(=O)C12OC1CC1C3CCC4=CC(=O)CCC4(C)C3C(O)CC12C (stereo not drawn) | 206
44 | CCCCOC(=O)CCCC | -92.8
45 | CCCCCCCCCCCC(=O)OOC(=O)CCCCCCCCCCC | 53 to 57
46 | COc1cc(C=CC(=O)O)cc(Br)c1O | 256

Row | SMILES | melting point [°C]
47 | CCN(CC)C(=O)C1=C(C)NC(=O)NC1c1ccccc1 (stereo not drawn) | 181
48 | O=C(C=P(c1ccccc1)(c1ccccc1)c1ccccc1)OCc1ccccc1 | 120 to 127
49 | O=S(=O)(c1ccccc1)N1CCNCC1 | 111 to 112
50 | CC(CC(C)(C)O)OC(O)C(Cl)(Cl)Cl (stereo not drawn) | 103
51 | O=C(O)COc1cccc2ccccc12 | 196
52 | CN1CCN(Cc2ccccc2N)CC1 | 87 to 88
53 | CCCCC(/C=C1\C(=O)C2(C)CCC1C2(C)C)(/C=C1\C(=O)C2(C)CCC1C2(C)C)C(=O)OCC (stereo not drawn) | 175
54 | O=[N+]([O-])c1cnc(Cl)c([N+](=O)[O-])c1 | 63 to 66
55 | CC(=O)OC(/C=C/c1ccccc1)=NNC(N)=O | 174
56 | C/C=C/C1Nn2c(nnc2-c2ccc(OC)cc2)S1 (stereo not drawn) | 80 to 82
57 | O=C(Cl)OCC1=Cc2ccccc2S1(=O)=O | 77
58 | CC(C)(C)OC(=O)C=P(c1ccccc1)(c1ccccc1)c1ccccc1 | 146 to 151
59 | CCOP(=S)(OCC)SCSC(C)(C)C | -29.2
60 | CC(C)CCCCCCCO | 5
61 | O=[N+]([O-])c1cc(F)ccc1Cl | 38
62 | CC(=CC(=O)O)C1CCCCC1 | 85.5
63 | Cc1[nH]c(=O)n(C(C)(C)C)c(=O)c1Cl | 176
64 | NNC(=O)c1ccc(O)cc1O | 241
65 | NC(=S)Nc1cc(C(F)(F)F)cc(C(F)(F)F)c1 | 166 to 168
66 | Cc1cc(CO)nn1C | 50 to 51
67 | COc1ccc(NCC(=O)Nc2ccc(OC)cc2)cc1 | 132
68 | CCOC(=O)c1c(NC(=O)CN(CC)CC)sc2c1CCCC2 | 74 to 75
69 | CNCC(O)c1ccc(O)cc1 (stereo not drawn) | 184

Row | SMILES | melting point [°C]
70 | COc1cc(C(c2ccc(C)s2)c2ccc(C)s2)c([N+](=O)[O-])cc1OC | 120
71 | CC1CC(=O)C(=O)C1C (stereo not drawn) | 64 to 69
72 | CN1CCC23c4c5ccc(OCc6ccccc6)c4OC2C(O)C=CC3C1C5 (stereo not drawn) | 132
73 | Cc1cccc(S)c1 | -20
74 | Cn1c(CO)cc2sccc21 | 103 to 104
75 | N[C@H]1CC[C@H](N)CC1 | 68 to 71
76 | CCOC(=O)CC(=O)C(C)C | -9
77 | Cc1ccc(NC(=O)C(C)c2ccc(C)cc2)cc1 (stereo not drawn) | 105
78 | CC(C(=O)O)c1ccc(-c2ccccc2)c(F)c1 (stereo not drawn) | 110
79 | Cn1nc(C=O)cc1-c1ccco1 | 62 to 64
80 | Nc1ncccc1Br | 66
81 | NC(=S)Nc1ccccc1C(F)(F)F | 158 to 159
82 | COC(=O)C(=Cc1ccc(O)cc1)C(=O)OC | 155 to 160
83 | O=c1c2ccccc2cc2c3ccccc3ccn12 | 147
84 | CCCCCCCCCCCCCCCCCCCCCCCO | 74 to 76
85 | O=C(O)C1=CC(Cl)=C(Cl)[C@H](O)[C@@H]1O | 195 to 200
86 | CCC(=O)Nc1ccccc1 | 106
87 | Cc1ccc(O)cc1Br | 56
88 | Brc1cccc2c1Oc1cccc(Br)c1O2 | 207
89 | CCCCc1c(C)nc(N(C)C)nc1O | 102
90 | FC(F)(F)c1ccccc1-n1ccnc1 | 52
91 | N#Cc1cc(F)c(Cl)nc1Cl | 91
92 | C(=NN=Cc1ccccc1)c1ccccc1 | 93

Row | SMILES | melting point [°C]
93 | O=C1C=C(/C=C/c2ccccc2)CCC1 | 65 to 67
94 | CC1OC(Oc2c[nH]c3ccc(Br)c(Cl)c23)C(O)C(O)C1O (stereo not drawn) | 213 to 217
95 | C=CCc1ccccc1O | -6
96 | CC(C)NC(=O)C(C(F)(F)F)C(F)(F)F | 136
97 | CCCC1C(=O)N2C(N(C)C)=Nc3ccc(C)cc3N2C1=O (stereo not drawn) | 228
98 | CC1CCC2(C(=O)O)CCC3(C)C(=CCC4C5(C)CCC(O)C(C)(C)C5CCC43C)C2C1C (stereo not drawn) | 284
99 | O=C(O)C(F)(F)c1ccccc1 | 75
100 | Cc1ccc(F)cc1 | -56
101 | O=c1[nH]cc(Cl)cc1Cl | 180
102 | Cc1nc(C)c(CO)s1 | 56 to 57
103 | COC(=O)c1ccccc1S(=O)(=O)Cl | 62 to 63
104 | O=C1c2ccccc2C(=O)N1CCNCCN1C(=O)c2ccccc2C1=O | 132
105 | CC(=O)c1csc(-c2ccc(C(F)(F)F)cc2)n1 | 66
106 | COc1ccc(NC(=O)C(C)=NNC(N)=S)cc1 | 234
107 | OCc1ccc(Oc2ccccc2)cc1 | 55 to 56
108 | COc1ccc(Oc2ccc(C(N)=NO)cc2[N+](=O)[O-])cc1 | 174 to 177
109 | OC1C(Cl)(Cl)CCCC1(Cl)Cl | 55
110 | NCCCCCCCCCCCCN | 70
111 | CC(C)S(=O)(=O)n1c(N)nc2ccc(C(=NO)c3ccccc3)cc21 | 198
112 | CC(=O)c1ccc(-c2ccccc2[N+](=O)[O-])o1 | 79
113 | CC(CCl)OC(C)CCl (stereo not drawn) | -97
114 | COC(=O)C=Cc1ccc(C=CC(=O)OC)c(N)c1 | 159
115 | O=C(/C=C/c1ccccc1)NNc1ccccc1 | 187

Row | SMILES | melting point [°C]
116 | Cc1ccc2ccc3ccc(C)cc3c2c1 | 145
117 | NC(=O)CBr | 89
118 | CCCC1C2=C(OC(=O)C1(C)C)c1ccc(OC)cc1CC2 (stereo not drawn) | 129
119 | Cc1nnc(SCC2=C(C(=O)O)N3C(=O)C(NC(=O)Cn4cnnn4)C3SC2)s1 (stereo not drawn) | 198
120 | Cc1cc(N)no1 | 59 to 63
121 | COc1cc(Br)c(CO)cc1OC | 95 to 100
122 | O=C(O)c1cc2ccccc2c2ccccc12 | 253
123 | NC12c3ccccc3C(c3ccccc31)c1ccccc12 | 220
124 | CC1Cc2ccccc2N1 (stereo not drawn) | -51
125 | Cc1ccc(Nc2ccc([N+](=O)[O-])cc2[N+](=O)[O-])cc1 | 140
126 | Cc1cc(O)c(C(=O)CC(=O)c2ccccc2)cc1Cl | 120 to 123
127 | c1ccc(-c2ccc3cc4ccc(-c5ccccc5)nc4cc3n2)cc1 | 279
128 | Cc1c(S(=O)(=O)Cl)cnn1-c1ccccc1 | 57
129 | CN(O)C(=O)Cc1ccc(OCc2ccccc2)cc1 | 96
130 | Cc1nc(-c2ccc(C=O)cc2)cs1 | 101 to 102
131 | O=Cc1ccc(OC2CCOCC2)cc1 | 95 to 96
132 | c1ccc2c(c1)NCCN2 | 99
133 | C[C@H](C(=O)O)c1ccccc1 | 29 to 32

— a melting point compilation (Tetko et al.)
